Measured values from ChEMBL document CHEMBL1145498, “A systematic interaction map of validated kinase inhibitors with Ser/Thr kinases” (Proc Natl Acad Sci U S A, 2007).

Columns and labels:
KB [1] = assay: cells; settings: Homo sapiens
[2] = biological target: T1, 3-phosphoinositide-dependent protein kinase 1 (Homo sapiens) (UniProt O15530)
T1 sequence (whole entry): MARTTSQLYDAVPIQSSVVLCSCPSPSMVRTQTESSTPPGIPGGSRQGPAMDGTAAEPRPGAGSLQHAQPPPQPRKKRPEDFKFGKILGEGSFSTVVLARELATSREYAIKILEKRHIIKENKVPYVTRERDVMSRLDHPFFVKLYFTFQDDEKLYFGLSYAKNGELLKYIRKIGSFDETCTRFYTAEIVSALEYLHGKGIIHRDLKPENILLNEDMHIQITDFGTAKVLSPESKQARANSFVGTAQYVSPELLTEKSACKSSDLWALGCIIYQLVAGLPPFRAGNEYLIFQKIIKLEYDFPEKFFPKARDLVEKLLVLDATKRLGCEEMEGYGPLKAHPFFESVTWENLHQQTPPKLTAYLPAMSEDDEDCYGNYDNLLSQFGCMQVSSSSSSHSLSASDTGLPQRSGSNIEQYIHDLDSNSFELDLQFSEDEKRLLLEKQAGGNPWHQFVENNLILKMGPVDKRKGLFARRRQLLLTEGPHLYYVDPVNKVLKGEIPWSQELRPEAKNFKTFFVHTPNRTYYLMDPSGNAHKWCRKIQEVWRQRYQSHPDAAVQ

[3] = biological target: T2, Serine/threonine-protein kinase Nek2 (Homo sapiens) (UniProt P51955)
T2 sequence (whole entry): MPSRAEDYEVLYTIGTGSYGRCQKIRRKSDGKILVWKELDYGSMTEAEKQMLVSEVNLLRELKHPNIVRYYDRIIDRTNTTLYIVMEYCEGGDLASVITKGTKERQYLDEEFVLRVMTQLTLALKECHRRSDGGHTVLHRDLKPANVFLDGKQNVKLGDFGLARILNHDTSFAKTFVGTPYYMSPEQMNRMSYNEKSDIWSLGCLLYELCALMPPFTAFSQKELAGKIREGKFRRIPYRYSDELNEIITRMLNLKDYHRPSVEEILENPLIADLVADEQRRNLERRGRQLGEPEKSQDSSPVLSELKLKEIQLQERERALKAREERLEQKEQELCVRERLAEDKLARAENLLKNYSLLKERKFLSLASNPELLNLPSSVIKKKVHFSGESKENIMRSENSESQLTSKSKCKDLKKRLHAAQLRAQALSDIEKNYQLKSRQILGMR

[4] = biological target: Serine/threonine-protein kinase PAK 6 (Homo sapiens) (UniProt Q9NQU5)
Serine/threonine-protein kinase PAK 6 (Homo sapiens), sequence (Q9NQU5 whole entry, looked up): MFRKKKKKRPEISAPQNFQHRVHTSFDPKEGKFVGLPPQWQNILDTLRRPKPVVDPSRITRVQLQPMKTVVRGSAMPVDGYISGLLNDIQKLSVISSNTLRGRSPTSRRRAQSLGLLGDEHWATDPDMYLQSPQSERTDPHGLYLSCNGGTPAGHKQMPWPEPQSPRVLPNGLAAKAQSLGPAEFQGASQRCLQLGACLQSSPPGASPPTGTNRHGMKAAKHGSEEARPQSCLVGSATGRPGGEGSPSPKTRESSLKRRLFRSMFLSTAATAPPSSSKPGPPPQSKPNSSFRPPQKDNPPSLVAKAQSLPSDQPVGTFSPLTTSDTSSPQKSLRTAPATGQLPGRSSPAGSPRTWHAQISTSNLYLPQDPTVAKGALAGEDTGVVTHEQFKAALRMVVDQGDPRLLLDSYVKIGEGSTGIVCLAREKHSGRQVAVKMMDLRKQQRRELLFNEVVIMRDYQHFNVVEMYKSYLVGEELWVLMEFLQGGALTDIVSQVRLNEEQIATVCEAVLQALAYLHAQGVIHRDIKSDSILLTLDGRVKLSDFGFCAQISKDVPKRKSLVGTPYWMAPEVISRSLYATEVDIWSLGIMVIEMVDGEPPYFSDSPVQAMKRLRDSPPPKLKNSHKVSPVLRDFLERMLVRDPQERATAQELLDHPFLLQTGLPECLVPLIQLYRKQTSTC

[5] = biological target: Calcium/calmodulin-dependent protein kinase type II subunit gamma (Homo sapiens) (UniProt Q13555)
Calcium/calmodulin-dependent protein kinase type II subunit gamma (Homo sapiens), sequence (Q13555 whole entry): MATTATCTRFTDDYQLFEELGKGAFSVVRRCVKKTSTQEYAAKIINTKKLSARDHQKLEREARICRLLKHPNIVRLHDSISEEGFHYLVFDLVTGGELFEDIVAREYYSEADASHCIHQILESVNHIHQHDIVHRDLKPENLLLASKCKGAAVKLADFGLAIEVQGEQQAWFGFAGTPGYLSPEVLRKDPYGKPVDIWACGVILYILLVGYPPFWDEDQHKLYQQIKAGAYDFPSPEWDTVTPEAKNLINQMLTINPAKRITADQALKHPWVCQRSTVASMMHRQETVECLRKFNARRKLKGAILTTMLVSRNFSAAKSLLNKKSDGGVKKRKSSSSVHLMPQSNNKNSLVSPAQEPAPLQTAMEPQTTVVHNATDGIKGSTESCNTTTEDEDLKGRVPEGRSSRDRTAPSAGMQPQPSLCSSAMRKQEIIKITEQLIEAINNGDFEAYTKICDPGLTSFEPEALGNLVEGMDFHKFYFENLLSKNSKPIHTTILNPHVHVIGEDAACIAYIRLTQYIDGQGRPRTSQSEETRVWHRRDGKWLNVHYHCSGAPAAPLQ

[6] = biological target: Calcium/calmodulin-dependent protein kinase type II subunit alpha (Homo sapiens) (UniProt Q9UQM7)
Calcium/calmodulin-dependent protein kinase type II subunit alpha (Homo sapiens), sequence (Q9UQM7 whole entry): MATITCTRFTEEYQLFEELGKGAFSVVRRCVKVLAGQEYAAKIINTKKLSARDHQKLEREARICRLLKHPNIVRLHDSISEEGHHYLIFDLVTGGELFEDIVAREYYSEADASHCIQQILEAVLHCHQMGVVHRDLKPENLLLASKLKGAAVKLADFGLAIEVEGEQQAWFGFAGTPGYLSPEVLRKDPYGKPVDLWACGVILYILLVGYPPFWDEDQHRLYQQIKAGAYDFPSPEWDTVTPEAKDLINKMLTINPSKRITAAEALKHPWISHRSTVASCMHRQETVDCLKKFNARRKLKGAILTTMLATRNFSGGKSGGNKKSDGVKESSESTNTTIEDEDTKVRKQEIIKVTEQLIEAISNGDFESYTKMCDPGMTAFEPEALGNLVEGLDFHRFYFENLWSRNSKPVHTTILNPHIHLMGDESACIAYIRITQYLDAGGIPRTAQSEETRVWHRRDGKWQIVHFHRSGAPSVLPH

KB [7] = assay: cells; settings: Homo sapiens; remark: listed apart in the source
[8] = biological target: T3, Epidermal growth factor receptor (Homo sapiens, UniProt P00533)
T3 sequence (P00533 whole entry): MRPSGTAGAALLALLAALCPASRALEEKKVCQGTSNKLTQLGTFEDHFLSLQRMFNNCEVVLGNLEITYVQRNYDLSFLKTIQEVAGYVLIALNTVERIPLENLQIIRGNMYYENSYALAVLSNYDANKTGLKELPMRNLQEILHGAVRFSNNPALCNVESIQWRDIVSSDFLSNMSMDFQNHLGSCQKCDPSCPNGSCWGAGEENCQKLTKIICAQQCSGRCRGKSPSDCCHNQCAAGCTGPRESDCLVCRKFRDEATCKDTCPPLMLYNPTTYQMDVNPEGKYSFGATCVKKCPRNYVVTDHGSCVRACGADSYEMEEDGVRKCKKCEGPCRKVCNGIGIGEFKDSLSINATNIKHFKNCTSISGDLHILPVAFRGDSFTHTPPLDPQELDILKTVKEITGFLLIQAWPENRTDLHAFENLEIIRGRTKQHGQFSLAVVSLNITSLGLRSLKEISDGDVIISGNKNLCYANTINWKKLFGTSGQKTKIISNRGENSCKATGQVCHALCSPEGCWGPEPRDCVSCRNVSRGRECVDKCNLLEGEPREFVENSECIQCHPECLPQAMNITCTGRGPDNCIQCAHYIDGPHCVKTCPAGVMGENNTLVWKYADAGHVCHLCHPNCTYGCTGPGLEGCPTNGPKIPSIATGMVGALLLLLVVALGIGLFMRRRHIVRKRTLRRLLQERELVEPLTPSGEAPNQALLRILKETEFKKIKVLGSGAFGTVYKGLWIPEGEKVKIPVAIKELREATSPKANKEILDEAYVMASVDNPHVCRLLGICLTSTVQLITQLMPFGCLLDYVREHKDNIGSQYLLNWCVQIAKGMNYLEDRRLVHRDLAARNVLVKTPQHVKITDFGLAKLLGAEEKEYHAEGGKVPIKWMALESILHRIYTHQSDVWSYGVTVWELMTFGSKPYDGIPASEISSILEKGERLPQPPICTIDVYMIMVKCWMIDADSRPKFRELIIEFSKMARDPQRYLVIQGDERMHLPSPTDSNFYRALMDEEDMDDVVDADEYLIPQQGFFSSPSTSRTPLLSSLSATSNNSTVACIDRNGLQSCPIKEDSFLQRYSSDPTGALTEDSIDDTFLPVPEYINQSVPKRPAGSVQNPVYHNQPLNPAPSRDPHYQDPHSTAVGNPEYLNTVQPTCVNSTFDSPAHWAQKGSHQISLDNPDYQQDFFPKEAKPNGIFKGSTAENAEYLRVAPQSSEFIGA

[9] = biological target: T4, Serine/threonine-protein kinase 4 (Homo sapiens) (UniProt Q13043)
T4 sequence (whole entry): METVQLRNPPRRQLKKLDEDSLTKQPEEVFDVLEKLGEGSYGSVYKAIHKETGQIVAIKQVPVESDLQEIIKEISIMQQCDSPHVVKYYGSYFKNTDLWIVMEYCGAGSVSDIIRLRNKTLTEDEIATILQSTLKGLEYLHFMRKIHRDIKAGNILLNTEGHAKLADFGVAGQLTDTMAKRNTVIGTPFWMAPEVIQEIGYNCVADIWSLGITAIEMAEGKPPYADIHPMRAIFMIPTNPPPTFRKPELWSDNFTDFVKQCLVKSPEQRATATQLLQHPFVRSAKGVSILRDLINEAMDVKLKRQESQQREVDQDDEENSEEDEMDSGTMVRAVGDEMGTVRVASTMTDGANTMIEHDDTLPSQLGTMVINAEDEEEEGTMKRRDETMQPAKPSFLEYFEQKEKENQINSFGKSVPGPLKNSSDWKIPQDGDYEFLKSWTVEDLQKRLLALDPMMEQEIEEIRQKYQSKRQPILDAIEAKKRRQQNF

[10] = biological target: Vascular endothelial growth factor receptor 2 (Homo sapiens, UniProt P35968)
[11] = Inhibition of Cdk2/cyclin B
[12] = biological target: Proto-oncogene tyrosine-protein kinase Src (Homo sapiens, UniProt P12931); assay: Inhibition of Src; settings: read-out: IC50
[13] = Binding affinity at PKA
[14] = Binding affinity at ROCK
[15] = biological target: Myosin light chain kinase, smooth muscle (Homo sapiens, UniProt Q15746); assay: Binding affinity at MLCK
Myosin light chain kinase, smooth muscle, sequence (Q15746 whole entry): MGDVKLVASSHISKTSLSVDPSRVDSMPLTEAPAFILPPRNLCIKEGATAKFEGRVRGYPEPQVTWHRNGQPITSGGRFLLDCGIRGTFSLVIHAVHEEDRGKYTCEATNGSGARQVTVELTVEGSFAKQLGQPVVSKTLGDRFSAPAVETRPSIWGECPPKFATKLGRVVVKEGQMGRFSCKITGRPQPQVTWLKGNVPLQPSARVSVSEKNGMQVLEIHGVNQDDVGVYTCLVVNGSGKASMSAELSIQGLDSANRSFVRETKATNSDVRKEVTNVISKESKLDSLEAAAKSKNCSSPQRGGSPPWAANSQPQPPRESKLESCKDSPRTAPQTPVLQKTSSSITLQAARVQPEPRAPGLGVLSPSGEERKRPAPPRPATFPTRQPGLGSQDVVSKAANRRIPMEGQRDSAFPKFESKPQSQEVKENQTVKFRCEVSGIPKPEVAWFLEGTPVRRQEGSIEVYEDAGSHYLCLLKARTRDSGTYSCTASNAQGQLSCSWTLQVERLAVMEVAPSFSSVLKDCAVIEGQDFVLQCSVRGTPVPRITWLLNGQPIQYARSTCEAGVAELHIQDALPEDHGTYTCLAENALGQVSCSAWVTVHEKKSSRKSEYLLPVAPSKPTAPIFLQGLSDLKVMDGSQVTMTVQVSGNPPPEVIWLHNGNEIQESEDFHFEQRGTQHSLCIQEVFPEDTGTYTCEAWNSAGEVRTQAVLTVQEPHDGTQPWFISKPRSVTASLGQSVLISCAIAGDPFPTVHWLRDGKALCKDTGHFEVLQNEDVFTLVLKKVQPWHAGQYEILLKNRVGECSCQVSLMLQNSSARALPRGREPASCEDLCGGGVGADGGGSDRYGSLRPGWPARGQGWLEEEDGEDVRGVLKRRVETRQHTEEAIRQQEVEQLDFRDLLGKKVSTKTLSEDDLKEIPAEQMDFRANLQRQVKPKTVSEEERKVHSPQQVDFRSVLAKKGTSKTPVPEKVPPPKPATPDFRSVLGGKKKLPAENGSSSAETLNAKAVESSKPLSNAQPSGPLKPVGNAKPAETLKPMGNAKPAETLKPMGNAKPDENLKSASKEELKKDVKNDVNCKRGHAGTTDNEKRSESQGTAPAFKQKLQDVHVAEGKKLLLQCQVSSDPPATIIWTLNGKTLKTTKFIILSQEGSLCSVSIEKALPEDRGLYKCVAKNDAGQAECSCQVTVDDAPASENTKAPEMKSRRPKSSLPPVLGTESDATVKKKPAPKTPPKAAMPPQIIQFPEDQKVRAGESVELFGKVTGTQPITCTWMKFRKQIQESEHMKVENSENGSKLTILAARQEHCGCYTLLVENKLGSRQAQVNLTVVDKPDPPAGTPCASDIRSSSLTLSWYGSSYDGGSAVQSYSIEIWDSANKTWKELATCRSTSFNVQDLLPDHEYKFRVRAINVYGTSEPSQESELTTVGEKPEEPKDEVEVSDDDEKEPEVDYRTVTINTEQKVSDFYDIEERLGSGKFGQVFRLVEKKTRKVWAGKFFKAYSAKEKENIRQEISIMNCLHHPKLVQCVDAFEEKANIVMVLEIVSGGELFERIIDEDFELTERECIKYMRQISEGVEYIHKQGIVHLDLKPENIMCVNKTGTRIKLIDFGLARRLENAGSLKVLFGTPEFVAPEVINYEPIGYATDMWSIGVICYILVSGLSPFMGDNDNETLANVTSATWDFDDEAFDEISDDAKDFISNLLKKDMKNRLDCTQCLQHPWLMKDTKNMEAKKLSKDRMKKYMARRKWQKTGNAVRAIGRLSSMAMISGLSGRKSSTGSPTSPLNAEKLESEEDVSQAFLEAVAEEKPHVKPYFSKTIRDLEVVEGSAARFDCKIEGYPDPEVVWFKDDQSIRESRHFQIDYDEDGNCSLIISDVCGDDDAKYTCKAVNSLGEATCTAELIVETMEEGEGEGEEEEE

[16] = Binding affinity at PKC
NT2 = assay: Inhibition of lysophosphatidic acid-induced MARCKS phosphorylation in human NT2 cells; assay type: functional, cell-based
TGF-beta receptor type-1 = TGF-beta receptor type-1 (Homo sapiens, UniProt P36897)
[17] = biological target: Cyclin-dependent kinase 2 (Homo sapiens, UniProt P24941)
[18] = biological target: T3, Epidermal growth factor receptor; remark: listed apart in the source
[19] = biological target: Calcium/calmodulin-dependent protein kinase kinase 2 (Homo sapiens, UniProt Q96RR4); assay: Inhibition of CaM-KKbeta

Row | SMILES | ΔTm [2] [°C] | ΔTm [3] [°C] | ΔTm [4] [°C] | ΔTm [5] [°C] | ΔTm [6] [°C] | ΔTm [9] [°C] | further results
1 | CN1CCC(Nc2ncc3ncnc(Nc4ccc(F)c(Cl)c4)c3n2)CC1 [FALNIDAMOL] | 0.1 | 2.4 | 2.9 | 1.4 | -0.2 | – | IC50 (KB [1]): 3200 nM; IC50 (KB [7]): 1.82 nM
2 | O=C(O)/C=C/c1cc(CO)ccc1CO | 0 | 1 | -0.4 | 0.1 | -0.1 | 0 | IC50 [8]: 780 nM
3 | CC(C)c1cc(/C=C(\C#N)C(=O)NCCCc2ccccc2)cc(C(C)C)c1O | -0.5 | 2.1 | 0.1 | 0.5 | 0.6 | 2.6 | IC50 [10]: 700 nM
4 | NC1=NC(=O)/C(=C2\CCNC(=O)c3[nH]c(Br)cc32)N1 [HYMENIALDISINE] | -0.2 | 0.8 | 1.2 | 0.2 | 0.4 | 5.2 | IC50 [11]: 40 nM
5 | CC(C)(C)c1cc(C=C2C(=O)C=CC2=O)cc(C(C)(C)C)c1O | -0.1 | 1.1 | -2.5 | 0.3 | 0.3 | 1.2 | IC50 [12]: 2200 nM
6 | Cc1cncc2cccc(S(=O)(=O)N3CCCNC[C@@H]3C)c12 | -0.2 | -0.2 | 0.7 | 2.9 | 1.2 | 3.3 | Ki [13]: 630 nM; Ki [14]: 1.6 nM; Ki [15]: 10100 nM; Ki [16]: 9270 nM; IC50 (NT2): 2500 nM
7 | OC[C@H]1O[C@@H](n2cnc3cc(Cl)c(Cl)cc32)[C@H](O)[C@@H]1O | 0.1 | 0.5 | -0.4 | 0.1 | 0.8 | 0.2 | –
8 | CCOc1cc(/C=C(\C#N)C(N)=O)cc(CSc2ccccc2)c1O | 0 | 0.3 | -0.4 | -0.1 | -0.2 | 0.4 | –
9 | Cn1cc(C2=C(c3cn(CCCN)c4ccccc34)C(=O)NC2=O)c2ccccc21 | -0.1 | 0.9 | 4.5 | 3.7 | 2.6 | 2.2 | –
10 | COc1cc2ncnc(Nc3cccc(Br)c3)c2cc1OC | 0 | 0.6 | 0.1 | 0.1 | 0.5 | 1.5 | –
11 | O=c1cc(N2CCOCC2)oc2c(-c3ccccc3)cccc12 | 0 | 1.3 | -0.6 | 0.3 | 0.5 | 0.6 | –
12 | NC(=O)c1ccc(-c2nc(-c3ccc4c(c3)OCCO4)c(-c3ccccn3)[nH]2)cc1 | -0.1 | 1.1 | 0 | 0.3 | 0.1 | 1.1 | IC50 (TGF-beta receptor type-1): 500 nM
13 | Oc1cccc(-c2nc(N3CCOCC3)c3oc4ncccc4c3n2)c1 | 0.1 | 0.5 | 0.7 | 0.1 | -0.3 | -0.1 | –
14 | CC(C)n1cnc2c(NCc3ccccc3O)nc(NCCCO)nc21 | 0.1 | 0.3 | 0.3 | 0.1 | 0 | 0.3 | IC50 [17]: 80 nM
15 | Nc1n[nH]c2nnc(-c3c(-c4ccccc4)nn4ccccc34)cc12 | 1 | -0.2 | 0.1 | -0.1 | -0.4 | 0.4 | –
16 | O=Nc1c(-c2c(O)[nH]c3ccccc23)[nH]c2ccccc12 | 1.5 | 2.5 | 1.7 | 2.3 | 3.9 | 7.8 | –
17 | C#Cc1cccc(Nc2ncnc3cc(OCCOC)c(OCCOC)cc23)c1 | 0 | 1 | -0.1 | 0.3 | 0 | 0.5 | –
18 | N#C/C(=C1/Nc2ccccc2S1)c1ccnc(NCCc2cccnc2)n1 | -0.1 | 1.9 | 1.6 | 1 | 2.6 | 1.2 | –
19 | CC(C)n1cnc2c(NCc3ccccc3)nc(NCCCO)nc21 | 0.1 | 0.9 | 0.6 | 0.3 | 1.8 | -0.3 | –
20 | COc1cc2ncnc(Nc3ccc(F)c(Cl)c3)c2cc1OCCCN1CCOCC1 | -0.5 | 1.1 | 0 | 0.4 | 0.3 | 1.6 | –
21 | N#C/C(=C\c1ccc(O)c(O)c1)C(=O)NCc1ccccc1 | 0.5 | 0.7 | -0.4 | -0.2 | 0.4 | 0.4 | –
22 | COc1ccc(CNC(=O)Nc2ncc([N+](=O)[O-])s2)cc1 | -0.3 | 0.6 | 0.5 | -0.2 | -0.1 | 0.4 | –
23 | CN(C)c1ccc(CC2C(=O)Nc3ccccc32)cc1 (centres undefined) | 0.3 | -0.5 | 0.1 | 0.2 | -0.3 | 4.4 | –
24 | O=C1Nc2ccc(I)cc2/C1=C\c1cc(Br)c(O)c(Br)c1 | -1 | -2.2 | -0.3 | -0.3 | -0.8 | 4.1 | –
25 | Cn1cc(C2=C(c3cn(CCCSC(=N)N)c4ccccc34)C(=O)NC2=O)c2ccccc21 | 0.1 | 0.4 | 3.1 | 5.2 | 4.2 | 7.4 | –
26 | O=c1ccc2ccc(O)c(O)c2o1 [DAPHNETIN] | 0 | 0.7 | -0.2 | 0 | 0.4 | 0 | IC50 [18]: 7670 nM
27 | O=S(=O)(NCCNC/C=C/c1ccc(Br)cc1)c1cccc2cnccc12 | -0.7 | -0.2 | 1.5 | 0 | 0.5 | -0.2 | Ki [15]: 28300 nM; Ki [19]: 29700 nM; Ki [16]: 31700 nM
28 | O=[N+]([O-])c1ccc(-c2nc(-c3ccc(F)cc3)c(-c3ccncc3)[nH]2)cc1 | -0.1 | -0.5 | -0.2 | -0.3 | 2.2 | 1.4 | –
